Key:
Mus musculus = species on record: Mus musculus; test: animal or person; conditions: BALB/c, po, 6 h, read-out: INH
Description: Anti-inflammatory activity in BALB/c mouse model of Carrageenan-induced paw edema assessed as inhibition of edema at 20 mg/kg, IG measured upto 6 hrs relative to control

[1] = molecular target: T1, Bifunctional epoxide hydrolase 2 (Mus musculus, UniProt P34914); test: Inhibition of C57BL/6J mouse cortex sEH using 14,15-EET as substrate preincubated for 15 mins followed by substrate addition measured after 2 hrs by UPLC-MS/MS analysis
T1 sequence (P34914 whole entry): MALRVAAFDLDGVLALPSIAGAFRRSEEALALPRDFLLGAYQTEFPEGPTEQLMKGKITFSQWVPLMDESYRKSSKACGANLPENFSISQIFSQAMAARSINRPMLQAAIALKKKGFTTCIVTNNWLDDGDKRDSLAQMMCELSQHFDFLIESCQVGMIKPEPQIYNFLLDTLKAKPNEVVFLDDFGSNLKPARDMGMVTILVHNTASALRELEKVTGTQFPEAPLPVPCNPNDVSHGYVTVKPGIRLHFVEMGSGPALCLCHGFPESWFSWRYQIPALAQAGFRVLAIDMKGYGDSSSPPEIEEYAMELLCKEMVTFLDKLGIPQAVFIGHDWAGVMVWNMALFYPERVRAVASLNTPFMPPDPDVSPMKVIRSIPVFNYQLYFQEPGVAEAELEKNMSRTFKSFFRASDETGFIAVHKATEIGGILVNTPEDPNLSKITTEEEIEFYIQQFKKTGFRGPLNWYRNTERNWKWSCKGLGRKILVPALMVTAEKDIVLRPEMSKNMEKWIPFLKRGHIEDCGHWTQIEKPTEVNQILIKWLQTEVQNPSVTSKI

in vivo [2] = conditions: BALB/c, mouse, plasma, po, 20 mg/kg
Description: AUC (0 to 24 hrs) in BALB/c mouse plasma at 20 mg/kg, IG measured upto 24 hrs by LC-MS/MS analysis

in vivo [3] = conditions: BALB/c, mouse, plasma, po, 20 mg/kg; remark: listed apart in the source
Description: Cmax in BALB/c mouse plasma at 20 mg/kg, IG measured upto 24 hrs by LC-MS/MS analysis

[4] = Cytotoxicity against human HepG2 cells incubated overnight by CCK8 assay
in vivo [5] = conditions: BALB/c, mouse, liver/plasma, po, 20 mg/kg
Description: Ratio of Cmax in BALB/c mouse liver to plasma at 20 mg/kg, IG measured upto 24 hrs by LC-MS/MS analysis

in vivo [6] = conditions: BALB/c, mouse, liver/plasma, po, 20 mg/kg; remark: listed apart in the source
Description: Ratio of AUC (0 to 24 hrs) in BALB/c mouse liver to plasma at 20 mg/kg, IG measured upto 24 hrs by LC-MS/MS analysis

in vivo [7] = conditions: BALB/c, mouse, liver, po, 20 mg/kg
Description: Cmax in BALB/c mouse liver at 20 mg/kg, IG measured upto 24 hrs by LC-MS/MS analysis

[8] = Cytotoxicity against HEK293T cells incubated overnight by CCK8 assay; conditions: human
[9] = molecular target: T2, Bifunctional epoxide hydrolase 2 (Homo sapiens, UniProt P34913); test: Inhibition of sEH (unknown origin) using PHOME as substrate incubated for 1 hr by fluorimetric assay
T2 sequence (P34913 whole entry): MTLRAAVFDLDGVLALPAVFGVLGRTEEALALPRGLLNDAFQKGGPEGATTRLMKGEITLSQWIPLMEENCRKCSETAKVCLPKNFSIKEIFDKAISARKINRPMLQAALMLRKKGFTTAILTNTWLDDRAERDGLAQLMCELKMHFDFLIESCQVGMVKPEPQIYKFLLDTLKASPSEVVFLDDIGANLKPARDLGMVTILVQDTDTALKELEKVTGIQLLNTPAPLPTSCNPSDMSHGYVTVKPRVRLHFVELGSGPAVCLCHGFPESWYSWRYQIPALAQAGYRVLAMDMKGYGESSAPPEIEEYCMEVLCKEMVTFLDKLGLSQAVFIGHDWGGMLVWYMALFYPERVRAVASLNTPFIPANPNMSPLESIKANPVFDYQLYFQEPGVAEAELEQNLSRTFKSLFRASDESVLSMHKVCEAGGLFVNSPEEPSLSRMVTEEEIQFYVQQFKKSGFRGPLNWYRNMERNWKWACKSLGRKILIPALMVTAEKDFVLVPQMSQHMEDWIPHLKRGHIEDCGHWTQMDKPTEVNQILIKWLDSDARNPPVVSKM

IC50 [1] [µM] | AUC(0-t) at 24 h (in vivo [2]) [ng·h/mL] | Cmax at 24 h (in vivo [3]) [ng/mL] | Kp at 24 h (in vivo [5]) | Kp at 24 h (in vivo [6]) | Cmax at 24 h (in vivo [7]) [ng/g] | IC50 [9] [µM] | Compound | inhibition in vivo at 20 mg/kg (Mus musculus) [%] | IC50 [4] [µM] | IC50 [8] [µM]
0.0861 |  |  |  |  |  |  | CC1(C)[C@@H](O[C@H]2OC[C@@H](O)[C@@H](O)[C@@H]2O)CC[C@]2(C)[C@H]3C(=O)C=C4[C@H]5C[C@@](C)(CNC(=O)NCC6CCOCC6)CC[C@]5(C)CC[C@@]4(C)[C@]3(C)CC[C@@H]12 | 37.4 |  | 
0.121 | 655 | 194 | 11 | 8.91 | 2140 |  | CC1(C)[C@@H](O[C@H]2O[C@H](CO)[C@@H](O)[C@H](O)[C@@H]2O)CC[C@]2(C)[C@H]3C(=O)C=C4[C@H]5C[C@@](C)(CNC(=O)NCC6CCOCC6)CC[C@]5(C)CC[C@@]4(C)[C@]3(C)CC[C@@H]12 |  | 17.6 | 46.6
 |  |  |  |  |  | 11.1 | C[C@H]1[C@H](C)CC[C@]2(C(=O)O)CC[C@]3(C)C(=CC[C@@H]4[C@@]5(C)CC[C@H](O)C(C)(C)[C@@H]5CC[C@]43C)[C@H]12 [URSOLIC ACID] |  |  | 

Reference: ChEMBL document CHEMBL6092185, “Discovery of glycosidated glycyrrhetinic acid derivatives: Natural product-based soluble epoxide hydrolase inhibitors” (Eur J Med Chem, 2024)
